The results in this text go back to ChEMBL document CHEMBL1201862, “PubChem BioAssay data set” (2004).

Among the test systems are 786-0; CAKI-1; EKVX; HCC 2998; HOP-92; LOX IMVI; NCI-H460; OVCAR-5; RXF 393; SF-268; SF-539; SK-MEL-28; SK-MEL-2; UACC-62; CCRF-CEM; HL-60; RPMI-8226.
Holding throughout (test): NCI tumour cell line growth inhibition, 48 h

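Following 48 hours of exposure in 96-well plates, responses at five concentrations were used to interpolate endpoints linearly. GI50: concentration for 50% inhibition of growth.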 Activity calls are given as the source filed them. Cut-off read from the data, not from the text of the source: active = GI50 up to about 1.1 µM and inactive = higher.

In the case of `O=C1/C(=C/c2ccccc2)CCCC/C1=C\c1ccccc1`, the GI50 with 786-0 is 65.8 µM (inactive); in the experiment on CAKI-1, > 100 µM (inactive); in the experiment with EKVX, > 100 µM (inactive); in the experiment with HCC 2998 it was 48.5 µM (inactive); in the experiment with HOP-92, 40.1 µM (inactive); in the experiment with LOX IMVI it was 53.7 µM (inactive). Besides, the GI50 with NCI-H460 was 51.3 µM (inactive); in the experiment on OVCAR-5 it was 29 µM (inactive); in the experiment on RXF 393 it was 27.2 µM (inactive); in the experiment on SF-268, 88.9 µM (inactive); in the experiment with SF-539 it was > 100 µM (inactive); with SK-MEL-28 it was > 100 µM (inactive). Also, the GI50 with SK-MEL-2 was 47.9 µM (inactive); in the experiment on UACC-62 it was > 100 µM (inactive).

As to `c1cc2c(cc1C1OCC3C(c4ccc5c(c4)OCO5)OCC13)OCO2` (stereo not drawn), the GI50 in the experiment on 786-0 is > 100 µM (inactive); in the experiment on CCRF-CEM it was 32.3 µM (inactive); in the experiment with EKVX, 62.4 µM (inactive); in the experiment with HCC 2998, 71.1 µM (inactive); with HOP-92, 69.7 µM (inactive); with LOX IMVI, 73.1 µM (inactive). Moreover, the GI50 in the experiment on NCI-H460 was 75.3 µM (inactive); in the experiment with OVCAR-5 it was 55.6 µM (inactive); in the experiment with RXF 393 it was 57.9 µM (inactive); in the experiment on SF-268 it was > 100 µM (inactive); in the experiment on SF-539 it was > 100 µM (inactive); in the experiment with SK-MEL-28, 64.7 µM (inactive). Also, the figures for the GI50 with SK-MEL-2 and in the experiment on UACC-62 were 98.2 µM (inactive) and 50 µM (inactive), respectively.

With `COC(=O)CC1NC(=O)[C@@H]1C(C)O` (stereo partly drawn), the GI50 in the experiment on 786-0, in the experiment with CCRF-CEM, with EKVX, in the experiment with HCC 2998, in the experiment with HL-60 and with LOX IMVI was > 100 µM (inactive) in each case. Besides, the GI50 in the experiment on NCI-H460, in the experiment with RPMI-8226, in the experiment on RXF 393, in the experiment with SF-268, with SF-539 and in the experiment on SK-MEL-28 was > 100 µM (inactive) each time. The GI50 with SK-MEL-2 and with UACC-62 was > 100 µM (inactive) in each case.

In the case of `O=C1c2ccccc2C(=O)c2sc(Nc3ccc(Cl)cc3)nc21`, the GI50 with 786-0 is 1.6 µM (inactive); in the experiment with CAKI-1 it was 1.99 µM (inactive); with CCRF-CEM, 1.32 µM (inactive); with EKVX it was 5.77 µM (inactive); in the experiment with HCC 2998, 4.32 µM (inactive); in the experiment with HL-60, 0.1 µM (active). Besides, the GI50 in the experiment on LOX IMVI was 1.59 µM (inactive); in the experiment on NCI-H460, 2.82 µM (inactive); in the experiment on OVCAR-5, 5.13 µM (inactive); in the experiment with RPMI-8226 it was 1.38 µM (inactive); with RXF 393 it was 1.53 µM (inactive); in the experiment with SF-268, 2.4 µM (inactive). Further, the GI50 was 4.55 µM (inactive) in the experiment on SF-539, 1.66 µM (inactive) in the experiment on SK-MEL-28, 3.67 µM (inactive) in the experiment on SK-MEL-2 and 1.85 µM (inactive) in the experiment with UACC-62.

As to `Brc1c2nc3ccccc3nc2n2ccc3ccccc3c12`, the GI50 in the experiment with 786-0, in the experiment on CAKI-1, in the experiment with CCRF-CEM, with EKVX, in the experiment with HCC 2998 and in the experiment on HL-60 was > 100 µM (inactive) throughout. Besides, the GI50 in the experiment on HOP-92, in the experiment on LOX IMVI, in the experiment on NCI-H460, in the experiment with OVCAR-5, in the experiment on RPMI-8226 and in the experiment with SF-268 was > 100 µM (inactive) each time. The GI50 with SF-539, with SK-MEL-28, in the experiment with SK-MEL-2 and in the experiment with UACC-62 was > 100 µM (inactive) in each case.

For the compound `Cn1nc(N)nc1N=S(C)(C)=N`, the GI50 with 786-0, in the experiment with CAKI-1, in the experiment with CCRF-CEM, in the experiment with EKVX, in the experiment on HCC 2998 and in the experiment with HL-60 was > 100 µM (inactive) in each case. The GI50 in the experiment on HOP-92, in the experiment on NCI-H460, in the experiment on OVCAR-5, in the experiment on RPMI-8226, with RXF 393 and in the experiment with SF-268 was > 100 µM (inactive) in each case. Moreover, the GI50 in the experiment with SF-539, in the experiment on SK-MEL-28, in the experiment on SK-MEL-2 and with UACC-62 was > 100 µM (inactive) throughout.

On to `CCCCN(CCCC)C(=O)/C(CC(=O)c1cccc2ccccc12)=N\NC(=O)c1cc2ccccc2cc1O`, for which the GI50 with 786-0 was 20.3 µM (inactive); with CCRF-CEM it was 3.94 µM (inactive); in the experiment on EKVX, 21.6 µM (inactive); with HCC 2998, 16.3 µM (inactive); with HL-60, 3.2 µM (inactive); with HOP-92, 19.2 µM (inactive). Also, the GI50 was 13 µM (inactive) in the experiment on LOX IMVI; 18.4 µM (inactive) in the experiment on NCI-H460; 30.3 µM (inactive) in the experiment with OVCAR-5; 3.52 µM (inactive) in the experiment on RPMI-8226; 24.8 µM (inactive) in the experiment with RXF 393; 11.2 µM (inactive) in the experiment on SF-268. Also, the GI50 in the experiment on SK-MEL-28 was 26 µM (inactive); in the experiment with SK-MEL-2, 14.1 µM (inactive); in the experiment on UACC-62, 6.85 µM (inactive).

With `O=C1CCCCCCCCCCC(=O)C2CCOCCOCCOCCC1Cc1cccc(n1)C2`, the GI50 in the experiment on 786-0 was > 100 µM (inactive); with CAKI-1, 41.2 µM (inactive); with CCRF-CEM it was 59.2 µM (inactive); in the experiment with EKVX, > 100 µM (inactive); in the experiment on HCC 2998 it was 46.1 µM (inactive); in the experiment on LOX IMVI it was > 100 µM (inactive). Besides, the GI50 in the experiment on NCI-H460 is 99.1 µM (inactive); in the experiment with RPMI-8226 it was 39.1 µM (inactive); in the experiment with RXF 393, 32 µM (inactive); in the experiment on SF-268, 94.4 µM (inactive); in the experiment on SF-539, > 100 µM (inactive); in the experiment on SK-MEL-28, > 100 µM (inactive). Further, the GI50 in the experiment on SK-MEL-2 and in the experiment on UACC-62 was > 100 µM (inactive) throughout.

As for `CN(C)C(=S)/N=c1\ss/c(=N\C(=S)N(C)C)n1-c1ccc2c(c1)OCO2`, the GI50 is > 100 µM (inactive) with 786-0; > 100 µM (inactive) with CAKI-1; > 100 µM (inactive) with EKVX; > 100 µM (inactive) in the experiment with HCC 2998; 3.27 µM (inactive) with HL-60; > 100 µM (inactive) with LOX IMVI. In addition, the GI50 in the experiment with OVCAR-5, with RXF 393, in the experiment on SF-268, in the experiment on SF-539, with SK-MEL-28 and with SK-MEL-2 was > 100 µM (inactive) each time. Further, the GI50 in the experiment on UACC-62 was 5.56 µM (inactive).

In the case of `COC(=O)C(CC(=O)c1c[nH]c2ccccc12)c1c[nH]c2ccccc12` (stereo not drawn), the GI50 is 23.9 µM (inactive) with 786-0; 20 µM (inactive) in the experiment with CAKI-1; 17.9 µM (inactive) in the experiment with CCRF-CEM; 23.4 µM (inactive) in the experiment with EKVX; 23 µM (inactive) with HCC 2998; 20.1 µM (inactive) with HL-60. In addition, the GI50 with NCI-H460 is 18.8 µM (inactive); with OVCAR-5, 22.2 µM (inactive); in the experiment with RPMI-8226, 11.5 µM (inactive); in the experiment on RXF 393, 14 µM (inactive); with SF-539, 19.3 µM (inactive); in the experiment on SK-MEL-28, 19.5 µM (inactive). In addition, the GI50 in the experiment with SK-MEL-2 was 20.1 µM (inactive); in the experiment with UACC-62, > 10 µM (inactive).

Consider `CC(C)(C)C(=O)/C=C/c1cccc(Oc2ccccc2)c1`, for which the GI50 with 786-0 was 16.7 µM (inactive); in the experiment with CCRF-CEM it was 4.08 µM (inactive); with EKVX it was 18.7 µM (inactive); with HCC 2998 it was 19 µM (inactive); with NCI-H460, 16 µM (inactive); in the experiment with OVCAR-5 it was 18.4 µM (inactive). In addition, the GI50 in the experiment on RPMI-8226 was 3.94 µM (inactive); with RXF 393, 15 µM (inactive); in the experiment with SF-268 it was > 10 µM (inactive); in the experiment with SF-539, 20.1 µM (inactive); in the experiment on SK-MEL-28, 16.4 µM (inactive); in the experiment with SK-MEL-2 it was 13.1 µM (inactive).

In the case of `CC1(C)OC(=O)C(c2cccs2)C(=O)O1`, the GI50 with 786-0, with CAKI-1, in the experiment with CCRF-CEM, in the experiment on EKVX, in the experiment with HCC 2998 and in the experiment with HOP-92 was > 100 µM (inactive) each time. Also, the GI50 in the experiment on LOX IMVI, with NCI-H460, in the experiment on OVCAR-5, in the experiment with RPMI-8226, in the experiment with RXF 393 and with SF-268 was > 100 µM (inactive) each time. The GI50 in the experiment on SF-539, with SK-MEL-28, in the experiment on SK-MEL-2 and with UACC-62 was > 100 µM (inactive) throughout.

Consider `COC1[C@@H](OC(C)=O)[C@@H](NC(=O)C(Cl)(Cl)Cl)C(I)[C@@H](N2C(=O)c3ccccc3C2=O)[C@H]1OC` (stereo partly drawn), for which the GI50 is > 100 µM (inactive) with 786-0; > 100 µM (inactive) in the experiment on CCRF-CEM; > 100 µM (inactive) in the experiment with EKVX; > 100 µM (inactive) in the experiment with HL-60; 47.5 µM (inactive) with HOP-92; > 100 µM (inactive) with LOX IMVI. The GI50 is > 100 µM (inactive) in the experiment with NCI-H460; > 100 µM (inactive) in the experiment on OVCAR-5; > 100 µM (inactive) in the experiment with RPMI-8226; > 100 µM (inactive) in the experiment with RXF 393; > 100 µM (inactive) with SF-268; 50.2 µM (inactive) in the experiment with SF-539. The GI50 in the experiment on SK-MEL-28 and in the experiment on UACC-62 was > 100 µM (inactive) each time.
